Structures are written as SMILES. “And” between values parts separate entries of the source, which are not always exact repeats. Equal values may be shown once. Read-outs that look alike come from different tables or passages of the source.

In one assay the test system is fondaparinux. The experiment in a line: FXa amidolytic assay (Example 10), fondaparinux. The following applies: read-out: Fondap FXa EC50.
In another assay the test system is UFH. Put plainly: FXa amidolytic assay (Example 10), UFH. The following applies: read-out: Heparin FXa uM EC50.
Another assay has as its system tinzaparin. The experiment in a line: FXa amidolytic assay (Example 10), tinzaparin. Particulars: read-out: Tinzap FXa EC50.
A further assay relates to enoxaparin. Put plainly: FXa amidolytic assay (Example 10), enoxaparin. The following applies: read-out: Enox FXa EC50.
The subject of a further assay is Unfractionated heparin. Put plainly: aPTT clotting assay, UFH 0.4 U/mL in plasma (Example 10). Format: biochemical. Here is the method:
aPTT clotting Assay: Unfractionated heparin was mixed with plasma at a final concentration of 0.4 U/mL (or concentration which increases aPTT time to between 120 and 300 seconds). […] The ACL Elite Hemostasis analyzer (Beckman Coulter™) was used to add aPTT reagent (HemosIL SynthASil) to supplemented plasma. Clotting was initiated by addition of CaCl2 and time to clot was recorded.

Setting [1] is: fondaparinux 0.02 μg/mL, human antithrombin, bovine Factor Xa.
[2] abbreviates: UFH 0.03 units/mL, human antithrombin, bovine Factor Xa.
The mark [3] stands for this setting: tinzaparin 0.1 ug/ml, human antithrombin, bovine Factor Xa.
Where [4] appears, read: enoxaparin 0.1 ug/ml, human antithrombin, bovine Factor Xa.
[5] abbreviates: unfractionated heparin 0.4 U/mL in plasma, aPTT clotting.

Protocol for enoxaparin: (§1) Two μl of test agent are added (range between 0.01 and 23 ug/ml) and incubated for 5 minutes at 23° C. Bovine Factor Xa was added to a final concentration of 0.636 nkat/mL and incubated for a further 10 minutes at 23° C.
Protocol for fondaparinux: as §1
Protocol for tinzaparin: as §1

Consider `COc1ccc(NC(=O)[C@@H](CCCNC(N)=O)NC(=O)c2cc(NC(=O)[C@@H](CCCNC(=N)N)NC(=O)c3cc(NC(=O)[C@@H](CCCNC(N)=O)NC(=O)c4cc(NC(=O)[C@H](N)CCCNC(N)=O)ccc4OC)ccc3OC)ccc2OC)cc1C(N)=O` [Compound 371], for which the EC50 (usually the midpoint of the concentration-response curve) in the assay on fondaparinux (setting [1]) was greater than 10000 nM; in the assay with UFH (setting [2]) it was greater than 10 µM; in the assay on tinzaparin (setting [3]) it was 197 nM; in the assay on enoxaparin (setting [4]) it was 252 nM; in the assay on Unfractionated heparin (setting [5]), 3260 nM.

For the compound `COc1ccc(NC(=O)[C@@H](CCCNC(=N)N)NC(=O)c2cc(NC(=O)[C@@H](CCCNC(N)=O)NC(=O)c3cc(NC(=O)[C@@H](CCCNC(N)=O)NC(=O)c4cc(NC(=O)[C@H](N)CCCNC(N)=O)ccc4OC)ccc3OC)ccc2OC)cc1C(N)=O` [Compound 370], the EC50 in the assay on fondaparinux (setting [1]) was greater than 10000 nM; in the assay with UFH (setting [2]), 12.5 µM; with tinzaparin (setting [3]), 259 nM; in the assay on enoxaparin (setting [4]), 463 nM; with Unfractionated heparin (setting [5]), 1460 nM.

For the compound `COc1cc(OC)c(C(=O)N[C@H]2CC[C@H](NC(=O)c3cc(C(=O)N[C@H]4CC[C@H](N=C(N(C)C)N(C)C)CC4)c(OC)cc3OC)CC2)cc1C(N)=O` [Compound 389], the concentration giving a half-maximal response (EC50) with fondaparinux (setting [1]) was greater than 10000 nM; with UFH (setting [2]), greater than 10 µM; with tinzaparin (setting [3]) it was 6730 nM; in the assay on enoxaparin (setting [4]) it was 5610 nM; in the assay with Unfractionated heparin (setting [5]), greater than 10000 nM.

Take `COc1ccc(C(=O)N[C@@H](CCCCN)C(=O)Nc2ccc(OC)c(C(=O)N[C@@H](CCCCN)C(=O)Nc3ccc(OC)c(C(=O)N[C@@H](CCCCN)C(=O)Nc4ccc(OC)c(C(N)=O)c4)c3)c2)cc1NC(=O)[C@@H](N)CCCCN` [Compound 237]: the EC50 with fondaparinux (setting [1]) is 3620 nM and 3730 nM; in the assay with UFH (setting [2]), 0.199 µM; with tinzaparin (setting [3]), 109 nM and 121 nM; in the assay on enoxaparin (setting [4]) it was 177 nM and 341 nM; in the assay on Unfractionated heparin (setting [5]), 1140 nM.

As to `COc1ccc(NC(=O)[C@@H](CCCNC(N)=O)NC(=O)c2cc(NC(=O)[C@@H](CCCNC(N)=O)NC(=O)c3cc(NC(=O)[C@@H](CCCNC(=N)N)NC(=O)c4cc(NC(=O)[C@H](N)CCCNC(=N)N)ccc4OC)ccc3OC)ccc2OC)cc1C(N)=O` [Compound 375], the EC50 amounted to 1260 nM in the assay on fondaparinux (setting [1]); 0.681 µM with UFH (setting [2]); 76 nM in the assay with tinzaparin (setting [3]); 113 nM in the assay with enoxaparin (setting [4]); 2690 nM with Unfractionated heparin (setting [5]).

Regarding `COc1ccc(NC(=O)[C@@H](CCCNC(N)=O)NC(=O)c2cc(NC(=O)[C@@H](CCCNC(N)=O)NC(=O)c3cc(NC(=O)[C@@H](CCCNC(N)=O)NC(=O)c4cc(NC(=O)[C@H](N)CCCNC(=N)N)ccc4OC)ccc3OC)ccc2OC)cc1C(N)=O` [Compound 373], the EC50 was greater than 10000 nM with fondaparinux (setting [1]); greater than 10 µM in the assay with UFH (setting [2]); 123 nM in the assay with tinzaparin (setting [3]); 123 nM with enoxaparin (setting [4]); 2360 nM in the assay with Unfractionated heparin (setting [5]).

Consider `COc1cc(OC)c(C(=O)N[C@H]2CC[C@@H](NC(=O)c3cc(C(=O)N[C@H]4CC[C@@H](N=C(N(C)C)N(C)C)CC4)c(OC)cc3OC)CC2)cc1C(N)=O` [Compound 388], for which the EC50 with fondaparinux (setting [1]) was greater than 10000 nM; with UFH (setting [2]) it was greater than 20 µM; in the assay on tinzaparin (setting [3]), greater than 5000 nM; in the assay on enoxaparin (setting [4]), greater than 5000 nM; with Unfractionated heparin (setting [5]), greater than 10000 nM.

For `COc1ccc(NC(=O)[C@@H](CCCNC(=N)N)NC(=O)c2cc(NC(=O)[C@@H](CCCNC(N)=O)NC(=O)c3cc(NC(=O)[C@@H](CCCNC(=N)N)NC(=O)c4cc(NC(=O)[C@H](N)CCCNC(N)=O)ccc4OC)ccc3OC)ccc2OC)cc1C(N)=O` [Compound 378], the EC50 came to 2330 nM in the assay with fondaparinux; 0.49 µM with UFH; 73 nM in the assay on tinzaparin; 110 nM in the assay on enoxaparin; 2010 nM in the assay with Unfractionated heparin.

On to `COc1ccc(NC(=O)[C@@H](CCCNC(=N)N)NC(=O)c2cc(NC(=O)[C@@H](CCCNC(=N)N)NC(=O)c3cc(NC(=O)[C@@H](CCCNC(N)=O)NC(=O)c4cc(NC(=O)[C@H](N)CCCNC(=N)N)ccc4OC)ccc3OC)ccc2OC)cc1C(N)=O` [Compound 219], for which the half-maximal effective concentration (EC50) turned out to be 731 nM with fondaparinux (setting [1]); 0.153 µM in the assay on UFH (setting [2]); 187 nM in the assay on tinzaparin (setting [3]); 95 nM with enoxaparin (setting [4]); 1170 nM in the assay with Unfractionated heparin (setting [5]).

These data come from patent US20110178104A1, “Anti-Heparin Compounds” (POLYMEDIX INC., priority 2010, published 2011).
